Laboratory results reported in ChEMBL document CHEMBL2375350, “Synthesis of indolyl-3-acetonitrile derivatives and their inhibitory effects on nitric oxide and PGE2 productions in LPS-induced RAW 264.7 cells” (Bioorg Med Chem Lett, 2013).

Key:
RAW264.7 [1] = assay: Antiinflammatory activity in mouse RAW264.7 cells assessed as inhibition of LPS-induced nitrite production after 24 hrs by Griess assay; type: functional, cell-based; settings: RAW264.7, 24 h
RAW264.7 [2] = assay: Antiinflammatory activity in mouse RAW264.7 cells assessed as inhibition of LPS-induced PGE2 production incubated for 1 hr prior to LPS challenge measured after 24 hrs by EIA; type: functional, cell-based
RAW264.7 [3] = assay: Cytotoxicity against mouse RAW264.7 cells assessed as cell viability after 24 hrs by MTT assay; type: cell-based; settings: RAW264.7, 24 h

SMILES	IC50 (RAW264.7 [1])	IC50 (RAW264.7 [2])	IC50 (RAW264.7 [3])
Cn1cc(CC#N)c2ccc(O)cc21	80.1 µM	11.7 µM	372 µM
COc1cccc2c(CC#N)c[nH]c12	> 100 µM	> 100 µM	> 400 µM
CC(=O)n1cc(CC#N)c2ccc(O)cc21	82.1 µM	41.3 µM	> 400 µM
Cn1cc(CC#N)c2c(O)cccc21	57.1 µM	16 µM	> 400 µM
COC(=O)n1cc(CC#N)c2ccc(O)cc21	> 100 µM	15.2 µM	339 µM
Cn1cc(CC#N)c2cccc(O)c21	39.8 µM	6.22 µM	> 400 µM
COC(=O)Cn1cc(CC#N)c2ccc(O)cc21	> 100 µM	> 100 µM	> 400 µM
COc1cccc2[nH]cc(CC#N)c12 [ARVELEXIN]	83.6 µM	13.9 µM	207 µM
N#CCc1c[nH]c2c(OCc3ccccc3)cccc12	48.7 µM	73.1 µM	> 400 µM
COc1ccc2[nH]cc(CC#N)c2c1	> 100 µM	> 100 µM	99.6 µM
Cn1cc(CC#N)c2cc(O)ccc21	> 100 µM	57.7 µM	325 µM
COc1ccc2c(CC#N)c[nH]c2c1	> 100 µM	83.6 µM	161 µM
N#CCc1c[nH]c2ccc(OCc3ccccc3)cc12	19.4 µM	> 25 µM	82.7 µM
N#CCc1c[nH]c2cccc(OCc3ccccc3)c12	45.6 µM	32.4 µM	105 µM
N#CCc1c[nH]c2cc(OCc3ccccc3)ccc12	20.4 µM	> 25 µM	53.2 µM
